# Assays:
# [1] = system: genotype 1b replicon (R1b); test: HCV subgenomic replicon R1b luciferase assay; assay type: cell-based, hepatitis C virus (HCV)
# From the text: (§1) Replicons: Three subgenomic replicons were used in this study: two replicative forms called R1a and R1b according to their genotype origin and a derivative of the R1b replicon with a mutation in the RNA-dependant RNA polymerase (Rp-del) which is thus unable to replicate and was used as a negative control in all experiments. They are bicistronic RNAs which contains the firefly luciferase (Photinus pyralis) reporter gene downstream of the HCV IRES and the sequence coding for the polyprotein NS3 to NS5B downstream of the encephalomyocarditis virus (EMCV) IRES.
# RNA transfection: The replicons were transfected into Huh7 cells by electroporation.
# Subconfluent monolayers of Huh7 cells were detached from the culture dish by trypsin treatment and rinsing with complete DMEM. […] 400 μL of the cell suspension was mixed by gentle pipetting with 8 μg RNA (R1a, R1b or Rp-del) and transferred into an electroporation cuvette with a gap-width of 0.4 cm (BioRad). The mixture was immediately subjected to one electric pulse at 270 V, 950 μF and maximum resistance using a Gene Pulser System (BioRad).
# After electroporation the 400 μL of each cell suspension was diluted in 9 mL complete DMEM and pooled together before being seeded onto 24-well plates (1 mL per well).
# Luciferase Assay: Cells were washed with PBS and scraped off the plate with 80 μL of 1× Luciferase Cell Culture Lysis Reagent (Promega). 40 μL of the lysate were transferred to a 96-well plate and mixed with 200 μL of Luciferase Assay Reagent (Promega). Luminescence expressed as relative light units (RLU) was measured immediately on a scintillation counter (Top Count NXT, Perkin Elmer) for 10 s.
# (§2) The data are averages from triplicate cultures. […] The values are expressed as relative ratios of the values obtained 4 h after electroporation. Unless otherwise stated, the RLU values were determined 72 h after transfection when cells were confluent.
# [2] = system: non-structural proteins NS4a and NS5a in R1b-transfected cells; test: HCV protein expression by immunofluorescence staining and FACS analysis; assay type: cell-based, hepatitis C virus (HCV); conditions: for NS5a positive cells by FACS analysis: 3 days of treatment (untreated 22%); for mean fluorescence intensity in the positive cells: NS5a-labeling, 3 days (untreated 16)
# Experimental: Immunofluorescence staining: Three days after electroporation, cells were plated in 8-well chamber slides at a density of 5×10^4 cells per well. 24 hours after, slides were washed in PBS and fixed in ⅔ acetone-ethanol for 5 minutes at −20° C. followed by 50 minutes block in PBS-glycin 0.2M. Primary antibodies were added to the cells at a 1:500 dilution in PBS-glycin 0.2M for 1 h at room temperature. After 3 washes in PBS, fluorescein conjugated secondary antibodies (Jackson ImmunoResearch) were added to the cells at a 1:50 dilution in PBS-glycin 0.2M for 40 minutes at room temperature. In the meantime, cells were counterstained with Evans Blue (Merck).
# FACS analysis: 72 h post-electroporation, single-cell suspension was prepared for FACS analysis. Briefly 0.8.10^6 cells were fixed and permeabilised for 15 min at room temperature with Cytofix/Cytoperm (PharMingen). Cells were stained for 30 min with primary antibodies at a 1:500 dilution in Perm/Wash Buffer (PharMingen). Bound monoclonal antibody was detected by incubation for 30 min at 4° C. with secondary antibody diluted 1:100 in Perm/Wash Buffer. The stained cells were resuspended in PBS prior to analysis using a FACSCalibur 3C (BD Biosciences).
# [3] = system: genotype 1a replicon (R1a); test: HCV subgenomic replicon R1a luciferase assay; assay type: cell-based, hepatitis C virus (HCV); conditions: Huh7-Lunet cells, 72 h of treatment, CDCA 100 μM or GGS 10 μM
# From the text: as §1, with “IRES. […]” for “IRES.”
# Subconfluent monolayers of Huh7 cells were detached from the culture dish by trypsin treatment and rinsing with complete DMEM. The cells were washed once with phosphate buffer saline (PBS), counted and resuspended at 10^7 cells per mL in Cytomix buffer (Van den Hoff, M J. Et al. 1992). […]
# Luciferase Assay: Cells were washed with PBS and scraped off the plate with 80 μL of 1× Luciferase Cell Culture Lysis Reagent (Promega). […] Luminescence expressed as relative light units (RLU) was measured immediately on a scintillation counter (Top Count NXT, Perkin Elmer) for 10 s.
# as §2
# [4] = system: replicon transfected cells (Huh7); test: Toxicity for Huh7 / replicon transfected cells; assay type: cell-based, human
# From the text: BAs, sterols and fatty acids are structurally related natural ligands of the NR1 family of nuclear receptors expressed in the liver and intestine. […] BAs were recently described as the natural ligands for FXR (Makishima M. et al. 2002; Parks D J. et al. 1999). To examine whether BAs were mediating their effects on HCV RNA replication through FXR we tested a panel of FXR ligands including the two formerly described FXR ligands that activate FXR at supraphysiological concentrations, farnesol and the synthetic retinoid TTNPB at a concentration of 10 μM each and other BAs such as CA, LCA, and UDCA, all at a concentration of 100 μM (FIG. 4B).
# [5] = target: T1, FXR (Homo sapiens, UniProt Q96RI1); conditions: Urizar N L. et al. 2002, cited from earlier work
# T1 construct: host or cells: HepG2
# T1 sequence (Q96RI1 1-486): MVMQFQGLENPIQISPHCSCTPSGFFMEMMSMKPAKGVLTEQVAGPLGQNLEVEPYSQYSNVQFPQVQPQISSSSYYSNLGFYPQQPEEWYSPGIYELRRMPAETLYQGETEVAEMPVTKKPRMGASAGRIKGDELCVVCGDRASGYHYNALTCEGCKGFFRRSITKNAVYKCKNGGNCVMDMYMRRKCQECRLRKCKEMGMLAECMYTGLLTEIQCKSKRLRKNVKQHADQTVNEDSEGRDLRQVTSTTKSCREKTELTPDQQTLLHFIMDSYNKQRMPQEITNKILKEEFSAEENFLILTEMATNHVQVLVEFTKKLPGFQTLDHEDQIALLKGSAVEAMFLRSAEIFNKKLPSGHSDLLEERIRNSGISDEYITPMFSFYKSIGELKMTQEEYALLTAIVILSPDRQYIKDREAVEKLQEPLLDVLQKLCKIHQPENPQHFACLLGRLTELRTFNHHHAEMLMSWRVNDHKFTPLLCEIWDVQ
smiles,measurement,setting,value
CC(C)CCC(O)[C@@H](C)[C@H]1CC[C@H]2[C@@H]3CC=C4C[C@@H](O)CC[C@]4(C)[C@H]3CC[C@]12C (some centres unmarked) [22-hydroxycholesterol],effect on luciferase activity at 5 μM,"[1]; Huh7 cells, 72 h (FIG. 4B)",did not show any effect on replication
C[C@H](CCCC(C)(C)O)[C@H]1CC[C@H]2[C@@H]3CC=C4C[C@@H](O)CC[C@]4(C)[C@H]3CC[C@]12C [25-hydroxycholesterol],effect on luciferase activity at 1 μM,"[1]; Huh7 cells, 1 μM, 72 h (FIG. 4B)",did not show any effect on replication
"C[C@H](CCC(=O)O)[C@H]1CC[C@H]2[C@@H]3[C@H](O)C[C@@H]4C[C@H](O)CC[C@]4(C)[C@H]3C[C@H](O)[C@]12C [CA, cholic acid]",effect on luciferase activity at 100 μM,"[1]; Huh7 cells, 72 h (FIG. 4B)",only weak activity
"C[C@H](CCC(=O)O)[C@H]1CC[C@H]2[C@@H]3[C@H](O)C[C@@H]4C[C@H](O)CC[C@]4(C)[C@H]3CC[C@]12C [CDCA, chenodeoxycholic acid]",effect on luciferase activity at 100 μM,"[1]; Huh7 cells, 72 h (FIG. 4B)",most potent activator
same,"effect on luciferase activity, dose-response","[1]; Huh7 cells, 10, 50 or 100 μM, 72 h",dose-dependent
same,concentration reaching maximum level of luciferase activity,"[1]; Huh7 cells, 72 h",100 µM
same,lowest concentration with detectable specific activity on luciferase,"[1]; Huh7 cells, 72 h",10 µM
same,"up-regulation of HCV RNA replication, comparison of free BAs","[1]; Huh7 cells, dose-response, 72 h",more efficiently than DCA
same,NS5a positive cells by FACS analysis,[2],27%
same,mean fluorescence intensity in the positive cells,[2],39
same,response of genotype 1a replicon to FXR-modulation,[3],same behaviour as genotype 1b
"C[C@H](CCC(=O)O)[C@H]1CC[C@H]2[C@@H]3CC[C@@H]4C[C@H](O)CC[C@]4(C)[C@H]3C[C@H](O)[C@]12C [DCA, deoxycholic acid]",concentration reaching maximum level of luciferase activity,"[1]; Huh7 cells, 72 h",100 µM
same,increase of luciferase activity,"[1]; Huh7 cells, DCA 100 μM, 72 h of treatment, vs untreated R1b cells",15 fold
same,time over which high levels of luciferase activities could be maintained,"[1]; Huh7 cells, DCA 100 μM, long-term culture with passages every 3 or 4 days",more than 2 weeks
same,mortality of treated cells compared to untreated,"[4]; Huh7 cells, 100 μM",No increase in the mortality
"C/C=C1\C(=O)CC2C3CCC4=CC(=O)CC[C@]4(C)C3CC[C@]12C (stereo partly drawn) [GGS, trans-4,17(20)-pregnadiene-3,16-dione]",inhibition at 20 µM,"[1]; Hepatitis C virus, Huh-7, Huh7-Lunet cells, 20 μM, 72 h, read-out: inhibition of the replication",≤ 95%
same,IC50,"[1]; Hepatitis C virus, Huh-7, Huh7-Lunet cells, basal replication, 72 h, read-out: inhibitory concentration causing a decrease of half the basal activity (IC50)",~2000 nM
same,inhibition of the effect of CDCA on replication,"[1]; Huh7-Lunet cells, CDCA 100 μM, guggulsterone 0.01 μM up to 20 μM, 72 h",inhibited in a dose-dependent fashion
same,further decrease of luciferase activity when associated to a given concentration of IFN,"[1]; Huh7-Lunet cells, GGS 10 μM plus IFN, 72 h",about 10 fold
same,inhibition of the basal replication of HCV,"[1]; Huh7-Lunet cells, absence of BAs stimulation, 72 h",could also inhibit the basal replication
same,concentrations toxic for the replicon transfected cells,[4]; replicon transfected cells,40 µM
same,NS4a and NS5a expression,[2]; 3 days of treatment,almost completely abolished
same,NS5a positive cells by FACS analysis,[2],4%
same,mean fluorescence intensity in the positive cells,[2],very weak fluorescence intensity
same,response of genotype 1a replicon to FXR-modulation,[3],same behaviour as genotype 1b
same,effect of GGS alone on FXR activity,"[5]; HepG2 cells, bile salt export pump promoter-driven luciferase construct",had no effect
same,concentration range antagonizing FXR,[5],micromolar range
"C/C(=C\c1ccc(C(=O)O)cc1)c1ccc2c(c1)C(C)(C)CCC2(C)C [TTNPB, (E)-[(tetrahydrotetramethylnaphthalenyl)propenyl]benzoic acid]",effect on luciferase activity at 10 μM,"[1]; Huh7 cells, 72 h (FIG. 4B)",slightly increased
CC(C)CCC[C@@H](C)[C@H]1CC[C@H]2[C@@H]3CC=C4C[C@@H](O)CC[C@]4(C)[C@H]3CC[C@]12C [cholesterol],effect on luciferase activity at 10 μM,"[1]; Huh7 cells, 72 h (FIG. 4B)",did not show any effect on replication
CC(C)=CCCC(C)=CCCC(C)=CCO [farnesol],effect on luciferase activity at 10 μM,"[1]; Huh7 cells, 72 h (FIG. 4B)",slightly increased
CC(=O)[C@H]1CC[C@H]2[C@@H]3CC=C4C[C@@H](O)CC[C@]4(C)[C@H]3CC[C@]12C [pregnenolone],effect on luciferase activity at 10 μM,"[1]; Huh7 cells, 72 h (FIG. 4B)",None of these compounds induced any upregulation of the luciferase activity
CC(=O)[C@H]1CC[C@H]2[C@@H]3CCC4=CC(=O)CC[C@]4(C)[C@H]3CC[C@]12C [progesterone],effect on luciferase activity at 5 μM,"[1]; Huh7 cells, 72 h (FIG. 4B)",None of these compounds induced any upregulation of the luciferase activity

# Source: patent US20100172870A1, “METHODS, USES AND COMPOSITIONS FOR MODULATING REPLICATION OF HCV THROUGH THE FARNESOID X RECEPTOR (FXR) ACTIVATION OR INHIBITION” (priority 2006, published 2010)
